Columns and labels:
wild-type EGFR = target: T1, wild-type EGFR (Homo sapiens, UniProt P00533); experiment: In vitro EGFR inhibition assay, wild type; assay type: biochemical; settings: for IC50: read-out: EGFR^WT IC50
T1 construct: purchased AssayQuant Technologies, Inc. (Marlboro, MA, USA)

[1] = system: 60 NCI cancer cell lines panel; experiment: NCI 60 cell lines panel single dose screen, whole panel; assay type: cell-based, human; settings: single dose 10^−5 M
Protocol: (§1) Screening of the anticancer activity of the newly synthesised compounds (6a, 6c, 6d, 6e, 6j, 6l, 6m, 6n, 6o, and 6p) was performed by the US National Cancer Institute (NCI) using 60 different human tumour cell lines in accordance with standard procedures formerly reported.
(§2) In vitro anticancer screening was carried out for the selected compounds at a single dose (10^−5 M) against 60 different human tumour cell lines of nine different cancer cell types: leukaemia, lung, colon, CNS, melanoma, ovarian, renal, prostate, and breast cancers.

EKVX = experiment: NCI single dose screen, EKVX; assay type: cell-based; settings: Homo sapiens, non-small cell lung cancer, single dose 10^−5 M, read-out: growth inhibition percentage
Protocol: as §1, §2

NCI-H23 = experiment: NCI single dose screen, NCI-H23; assay type: cell-based; settings: Homo sapiens; NCI-H23, non-small cell lung cancer; single dose 10^−5 M; read-out: growth inhibition percentage
Protocol: as §1, §2

NCI-H522 = experiment: NCI single dose screen, NCI-H522; assay type: cell-based; settings: Homo sapiens; NCI-H522, non-small cell lung cancer; single dose 10^−5 M; read-out: growth inhibition percentage
Protocol: as §1, §2

HCC-2998 = experiment: NCI single dose screen, HCC-2998; assay type: cell-based; settings: Homo sapiens; HCC-2998, colon cancer; single dose 10^−5 M; read-out: growth inhibition percentage
Protocol: as §1, §2

HCT-15 = experiment: NCI single dose screen, HCT-15; assay type: cell-based; settings: Homo sapiens; HCT-15, colon cancer; single dose 10^−5 M; read-out: growth inhibition percentage
Protocol: as §1, §2

HT29 = experiment: NCI single dose screen, HT29; assay type: cell-based; settings: Homo sapiens, HT-29; HT29, colon cancer; single dose 10^−5 M; read-out: growth inhibition percentage
Protocol: as §1, §2

UACC-62 = experiment: NCI single dose screen, UACC-62; assay type: cell-based; settings: Homo sapiens; UACC-62, melanoma; single dose 10^−5 M; read-out: growth inhibition percentage
Protocol: as §1, §2

OVCAR-3 = experiment: NCI single dose screen, OVCAR-3; assay type: cell-based; settings: Homo sapiens; OVCAR-3, ovarian cancer; single dose 10^−5 M; read-out: growth inhibition percentage
Protocol: as §1, §2

SK-OV-3 = experiment: NCI single dose screen, SK-OV-3; assay type: cell-based; settings: Homo sapiens; SK-OV-3, ovarian cancer; single dose 10^−5 M; read-out: growth inhibition percentage
Protocol: as §1, §2

T1 sequence (P00533 25-1210): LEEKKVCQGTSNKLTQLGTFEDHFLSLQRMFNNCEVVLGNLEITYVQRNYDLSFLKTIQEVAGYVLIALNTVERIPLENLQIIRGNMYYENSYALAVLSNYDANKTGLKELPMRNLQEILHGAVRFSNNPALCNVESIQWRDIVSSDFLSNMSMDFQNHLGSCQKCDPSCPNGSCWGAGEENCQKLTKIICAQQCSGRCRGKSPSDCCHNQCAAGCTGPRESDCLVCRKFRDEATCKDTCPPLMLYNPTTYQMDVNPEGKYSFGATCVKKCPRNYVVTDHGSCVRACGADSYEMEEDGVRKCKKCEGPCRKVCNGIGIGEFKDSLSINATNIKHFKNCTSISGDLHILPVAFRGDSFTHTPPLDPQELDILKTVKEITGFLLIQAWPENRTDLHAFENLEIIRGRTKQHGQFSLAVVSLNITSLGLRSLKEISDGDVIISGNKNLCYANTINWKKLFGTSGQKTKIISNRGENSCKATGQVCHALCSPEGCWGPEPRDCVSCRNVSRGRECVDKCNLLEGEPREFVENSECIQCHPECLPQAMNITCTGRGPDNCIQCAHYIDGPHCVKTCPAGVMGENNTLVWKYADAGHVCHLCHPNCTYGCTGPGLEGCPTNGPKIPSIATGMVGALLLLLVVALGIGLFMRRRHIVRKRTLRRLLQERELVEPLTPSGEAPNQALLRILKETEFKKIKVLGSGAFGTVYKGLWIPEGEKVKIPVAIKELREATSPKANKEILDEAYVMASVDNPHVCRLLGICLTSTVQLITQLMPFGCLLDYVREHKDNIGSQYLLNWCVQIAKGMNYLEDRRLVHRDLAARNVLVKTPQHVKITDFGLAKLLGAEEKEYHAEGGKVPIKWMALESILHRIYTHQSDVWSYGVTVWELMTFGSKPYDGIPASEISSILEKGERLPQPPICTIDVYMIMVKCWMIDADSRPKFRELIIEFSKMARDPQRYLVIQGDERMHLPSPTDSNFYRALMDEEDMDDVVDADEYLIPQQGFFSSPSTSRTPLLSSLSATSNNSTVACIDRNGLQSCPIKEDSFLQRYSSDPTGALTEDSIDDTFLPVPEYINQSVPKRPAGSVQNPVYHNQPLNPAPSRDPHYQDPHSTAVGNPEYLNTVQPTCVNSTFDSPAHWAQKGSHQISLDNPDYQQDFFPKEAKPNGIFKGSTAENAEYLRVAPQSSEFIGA

| Structure (SMILES) | EGFR^WT IC50 (wild-type EGFR) | IC50 (wild-type EGFR) [µM] | anticancer activity in the NCI 60 panel (in words) [1] | inhibition at 10 µM (EKVX) [%] | inhibition at 10 µM (NCI-H23) [%] | inhibition at 10 µM (NCI-H522) [%] | inhibition at 10 µM (HCC-2998) [%] | inhibition at 10 µM (HCT-15) [%] | inhibition at 10 µM (HT29) [%] | inhibition at 10 µM (UACC-62) [%] | inhibition at 10 µM (OVCAR-3) [%] | inhibition at 10 µM (SK-OV-3) [%] |
| --- | --- | --- | --- | --- | --- | --- | --- | --- | --- | --- | --- | --- |
| CN1CN(NC(=O)Nc2ccccc2)C(=O)c2ccccc21 [Compound 6a, 1-(1-Methyl-4-oxo-1,4-dihydroquinazolin-3(2H)-yl)-3-phenylurea] | no significant activity | > 100 | did not show any anticancer activities | < 10 | < 10 | < 10 | < 10 | < 10 | < 10 | < 10 | < 10 | < 10 |
| CN1c2ccccc2C(=O)N(NC(=O)Nc2ccccc2)C1c1ccccc1 (stereo not shown) [Compound 6c, 1-(1-Methyl-4-oxo-2-phenyl-1,4-dihydroquinazolin-3(2H)-yl)-3-phenylurea] |  | > 100 |  | < 10 | < 10 | < 10 | < 10 | < 10 | < 10 | < 10 | 11.7 | < 10 |
| CN1c2ccccc2C(=O)N(NC(=O)Nc2ccccc2)C1c1ccc(F)cc1 (stereo not shown) [Compound 6d, 1-(2-(4-Fluorophenyl)-1-methyl-4-oxo-1,4-dihydroquinazolin-3(2H)-yl)-3-phenylurea] |  | > 100 |  | < 10 | < 10 | < 10 | < 10 | < 10 | < 10 | 15.1 | 12.5 | < 10 |
| CN1c2ccccc2C(=O)N(NC(=O)Nc2ccccc2)C1c1ccc([N+](=O)[O-])cc1 (stereo not shown) [Compound 6e, 1-(1-Methyl-2-(4-nitrophenyl)-4-oxo-1,4-dihydroquinazolin-3(2H)-yl)-3-phenylurea] |  | 48.7 ± 3.47 |  | < 10 | < 10 | < 10 | < 10 | < 10 | < 10 | < 10 | < 10 | < 10 |
| COc1ccc(NC(=O)NN2C(=O)c3ccccc3N(C)C2c2ccc(OC)cc2)cc1 (stereo not shown) [Compound 6j, 1-(4-Methoxyphenyl)-3-(2-(4-methoxyphenyl)-1-methyl-4-oxo-1,4-dihydroquinazolin-3(2H)-yl)urea] |  | > 100 |  | < 10 | < 10 | < 10 | < 10 | < 10 | < 10 | < 10 | 10.2 | < 10 |

From publication PMC10114980, “Triple targeting of mutant EGFR^L858R/T790M, COX-2, and 15-LOX: design and synthesis of novel quinazolinone tethered phenyl urea derivatives for anti-inflammatory and anticancer evaluation” (Journal of Enzyme Inhibition and Medicinal Chemistry, 2023)
